Laboratory results from patent US7759355B2, “Adenosine A2A receptor antagonists for treating restless legs syndrome or nocturnal myoclonus” (Kyowa Hakko Kirin Co., Ltd., priority 2002, dated 2010).

Key:
[1] = tested on: patients with moderate to severe RLS; assay: Human clinical trial, RLS treatment with an A2A antagonist (IRLSRS total score and total PLMS index by polysomnography); type: in vivo; settings: 80 mg once a day for 6 weeks
Method: In order to assess the efficacy of a representative A2A antagonist in treating RLS, a clinical trial was initiated and conducted in accordance with standard procedures. Briefly, the total score in International RLS Rating Scale (IRLSRS) and total PLMS index (polysomnography; PLMS index represents the number of periodic limb movements per hour of sleep) of the patients were measured to evaluate the efficacy of Compound A in RLS [Understanding and Diagnosing Restless Legs Syndrome (2003), Restless Legs Syndrome Foundation, 819 Second Street, SW Rochester, Minn. 55902].
Scoring for IRLSRS was made according to the following Instructions for Examiner (Maximum IRLSRS total score is 40).
The Examiner was instructed to have the patient rate his/her symptoms for the following ten questions. The patient and not the examiner made the ratings, but the examiner was available to clarify any misunderstandings the patient may have had about the questions. Either the examiner or the patient marked the answers on the form. In questions 1, 2, 4, 5, 6, 9 and 10, the following scoring was used: (4) Very severe; (3) Severe; (2) Moderate; (1) Mild; and (0) None.
Patients diagnosed with idiopathic RLS were withheld from the medication from the time of screening until the end of treatment. After tapering all RLS medications, patients were screened for eligibility. At Week −2, patients were admitted to the clinic on the night preceding the visit day to be adapted to the sleep environment of the laboratory. After screening, IRLSRS total score and total PLMS index of the patients were measured on Day −1 in order to establish a baseline and to assess the range of RLS fluctuation. Only patients with moderate to severe RLS (15 and more IRLSRS total scores) were enrolled in the study.
Treatment with Compound A (80 mg, once a day) began on the day following Day −1 visit and continued for the next 6 weeks. The last dose of Compound A was taken on the day of Week 6 visit. At Week 8, patients received RLS assessments (IRLSRS total score and total PLMS index). The inhibition ratio for each score was calculated by the following equation. Inhibition Ratio(%)={[(Score at Day−1)−(Score at Week 8)]/(Score at Day−1)}×100

[2] = tested on: patients with advanced Parkinson's disease; animal models; settings: animal models and early Phase II studies in patients with advanced Parkinson's disease; cited from earlier work
[3] = tested on: parkinsonian monkeys; settings: Neurology, 52, 1673-1677 (1999); cited from earlier work
[4] = Week 8 vs Day-1 baseline, N = 4

| Structure (SMILES) | IRLSRS Total Score, Inhibition Ratio [1, 4] | Total PLMS Index, Inhibition Ratio [1, 4] | IRLSRS Total Score, Week 8, mean (SD) ([1]; assessed at Week 8, N = 4, baseline (Day-1) 32.5 (4.39), maximum score 40) | Total PLMS Index, Week 8, mean (SD) ([1]; assessed at Week 8, N = 4, baseline (Day-1) 45 (15.41), periodic limb movements per hour of sleep) | Effect on RLS symptoms ([1]; patients with moderate to severe RLS) | Amelioration of Parkinsonian symptoms [2] | Hyperactivity and dyskinesia [3] |
| --- | --- | --- | --- | --- | --- | --- | --- |
| CCn1c(=O)c2c(nc(/C=C/c3ccc(OC)c(OC)c3)n2C)n(CC)c1=O [Compound A, (E)-8-(3,4-dimethoxystyryl)-1,3-diethyl-7-methylxanthine] | 29.2% | 45.2% | 23 (8.04) | 24.67 (23.89) | relief of RLS symptoms and improvement | efficacious in ameliorating Parkinsonian symptoms |  |
| CCn1c(=O)c2c(nc(/C=C/c3ccc(OC)c(OC)c3)n2C)n(CC)c1=O [KW-6002] |  |  |  |  |  |  | without producing hyperactivity and provoking dyskinesia |
